Results reported in patent US20200268019A1, “USE OF ZINC AND COPPER GLUCONATE IN THE TREATMENT OF METHICILLIN-RESISTANT STAPHYLOCOCCUS AUREUS” (Distributors Processing, Inc., priority 2015, published 2020).

Legend:
[1] = Test of efficacy and safety: zinc source in dry feed of domesticated pigs, daily weight gain; conditions: for Average daily weight gain: 83 days
Description: In a confirmation experiment the safety of using powdered zinc gluconate as a conventional dietary supplement in the dietary mineral supply of domesticated pigs was examined in a controlled study.
3 groups of pigs, each comprising 11 individuals were identically fed save for the source of zinc as according to Table 1. Group 1, which was the control group, was fed […] 75% zinc oxide per ton dry feed according to normal feeding recommendations. Group 2 was fed zinc gluconate as a powder. Group 3 was fed zinc gluconate and further including 100 g Micro Aid® per ton feed. The amount of zinc fed to the animals of the three study groups was identical and corresponding to 23 g zinc per ton dry feed. Micro Aid® is dietary supplement known to enhance growth and reduce ammonia excretions in domesticated pigs. It is a registered trade mark of DPI Global, 17656 Avenue 168, Porterville, Calif. 93257. Micro Aid® has a recognized effect on the growth increase of pigs on the order of 4% per 100 g added Micro Aid® per ton feed.
The daily gain of weight for each individual was registered during the trial period and the trial was terminated after 83 days. For comparison the expected weight gain of adding Micro Aid® to a feed mixture comprising one of the two zinc sources has been calculated.

Salmonella = assay: Study 1: test for antigens against Salmonella in the blood of pigs; assay type: in vivo; conditions: for Relative risk: Salmonella, relative to control; for Pct. positives / Positives: Salmonella-positive blood samples; for Positives: of 126 (control) / 108 (study) samples
Procedure: A subset of the pigs in both study groups were tested for Salmonella prior to shipping out of the test and to the meat processing facility by testing for antigens against Salmonella in the blood. An inclusion rate of 60% was desired for both groups but was not reached for the study group.

[2] = administered as pills; cited from earlier work
[3] = Study 1: randomized trial of 0.05% zinc gluconate in pellet feed, productivity and health of pigs; conditions: for combined disease and mortality withdrawal rate / pigs treated for diarrhea during the study period: 204 pigs per group, 12 weeks
Procedure: In a randomized trial the effect of the addition of 0.05% zinc gluconate to a standard pellet feed was tested for efficacy against Salmonella, health condition of the digestive system including stomach and intestines, and productivity in pigs, and compared to an otherwise identical diet without zinc gluconate. The control group received zinc in the form of zinc oxide to the same amount as the study group.
408 pigs from a single farm were randomly partitioned into two groups of 204 pigs each and fed with either a pelleted control feed or an otherwise identical pelleted feed comprising 0.05% zinc gluconate. In order maintain comparability of control group to study group and to diminish the influence of lung disease on the mortality of the control group, both groups were twice vaccinated with Porcilis against severe lung disease.
All pigs were followed for 12 weeks starting with their inclusion into the trial and ending with their transport to a meat processing plant. For all pigs in the study data on the feed uptake, growth, eventual diseases suffered during the study period were collected as well as including the complete slaughter records of the meat processing plant into the study. Pigs were included into the trial upon reaching an entry weight of on the average 33 kg. The pigs were weighed at inclusion into the trial, after 6 weeks, and after 12 weeks. […] The pigs in the study were allowed to eat and drink freely and the access to water and dietary was unrestricted.

[4] = Study 3: birth weight of piglets and milk production of sows; assay type: in vivo
Procedure: (§1) A controlled comparison study between two groups of pigs at two farms in the province of Nordjylland, Denmark, was performed, each farm having about 600 sows in production and each farm feeding the sows in the production zinc according to veterinarian recommendations of 75 ppm zinc per FU. At farm 1, the sows received zinc in the form of zinc oxide whereas at farm 2, the sows received zinc in the form of zinc gluconate.

[5] = Study 2: comparison of two farms, open wounds and footpad lesions in sows; assay type: in vivo
Procedure: as §1

[6] = pigs, 11 per group, 23 g zinc per ton dry feed
[7] = pigs having weights between 33-65 kg
[8] = pigs weighing between 65-105 kg

Molecule | Average daily weight gain [1, 6] | Relative risk (Salmonella) | Pct. positives (Salmonella) | Positives (Salmonella) | added zinc taken up by the digestive system [2] | combined disease and mortality withdrawal rate [3] | pigs treated for diarrhea during the study period [3] | feeding units (FU) to achieve 1 kg of growth ([3]; average, whole trial 33-105 kg) | feeding units (FU) to achieve 1 kg of growth [3, 7] | feeding units (FU) to achieve 1 kg of growth [3, 8] | Average daily weight gain ([1]; Group 3: zinc gluconate further including 100 g Micro Aid per ton feed) | signs of malnourishment or increased infection levels ([1]; regular inspection by a veterinarian) | milk production of the sows ([4]; farm 2 compared to farm 1 (zinc oxide)) | weight of piglets at birth ([4]; sows of farm 2) | sows suffering from lesions on their footpads ([5]; sows of farm 2, 75 ppm zinc per FU) | number of open wounds ([5]; sows, 75 ppm zinc per FU, within a month of the dietary change)
[O]=[Zn] [zinc oxide, reference compound] | 822 g/daily | 1 | 30.2% | 38 | 20% | 1.7% | about 15% | 2,85 FU/kg | 2,53 FU/kg | 3.13 FU/kg |  |  |  |  |  | 
zinc gluconate | 875 g/daily | 0.56 | 22.2% | 24 |  | 1.7% | about 15% | 2.78 FU/kg | 2,51 FU/kg | 3.00 FU/kg | 910 g/daily | no signs of these conditions were observed | increased compared to the sows of farm 1 | above average weight at birth | disappeared almost completely | rapid decrease in the number of open wounds
